The values that follow come from US20130089724A1, “NOVEL ORGANIC UV ABSORBERS” (COMMISSARIAT A L'ENERGIE ATOMIQUE ET AUX ENERGIES …, priority 2010, published 2013).

Structures are written as SMILES.

What all share (type): physicochemical
A short description of data set [1]: accelerated aging test of polyurethane varnish deposited layer, 550 W/m^2, 72 h. As to conditions: 50 mg per g polyurethane solution. As for the experimental part:
A curing agent is added to a solution of polyurethane (70% by weight) in a xylene/toluene mixture.
A molecule of nonfunctionalized pyrene (CAS No. 129000) is added in a proportion of 50 mg of pyrene per gram of polyurethane solution.
The mixture is deposited by “knife coating” on a glass slide transparent to UV-A radiation.
After drying in ambient air, this slide is subjected to an accelerated aging test in a Suntest CPS chamber from Atlas. The aging conditions are as follows: irradiance at 550 W/m^2, xenon arc lamp equipped with a “sheet glass” filter which cuts off the UV radiation below 310 nm, exposure time 72 h.
The pyrene not in accordance with the invention is obviously not stable to light.

Data set [2] in a line: accelerated aging test (Suntest CPS) of silica sol-gel deposited layer, 620 W/m^2, 24 h. Particulars: 0.5 mg/ml solution, xenon arc 620 W/m^2, cut-off 310 nm. As for the experimental part: A silica sol-gel solution is formed by the hydrolysis of a silicon alkoxide (tetraethoxysilane, CAS No. 78-10-4) in the presence of ethanol and hydrochloric acid.
A 0.5 mg/ml aqueous pyrene-1-carboxylic solution is formed with a molar equivalent of sodium hydroxide.
One volume of the pyrene-1-carboxylic solution is mixed with an equivalent volume of the sol-gel solution: the mixture is deposited by “knife coating” on a microscope slide transparent to UV-A radiation.
After drying in ambient air, this slide is subjected to an accelerated aging test in a Suntest CPS chamber from Atlas.
The aging conditions are as follows: irradiance at 620 W/m^2, xenon arc lamp equipped with a “sheet glass” filter which cuts off the UV radiation below 310 nm, exposure time 24 h.
FIG. 1 reports the UV transmission spectra of the silica sol-gel deposited layer in which the pyrene-1-carboxylic is incorporated, before/after exposure.
The “light” stability of the pyrene-1-carboxylic compound is thus confirmed.

Data set [3] is described as follows: stability toward solar irradiation (general statement). As to conditions: compared with conventional UV stabilizers / substituted benzotriazoles.
A short description of data set [4]: accelerated aging test of colored textile behind sol-gel filter layer (NF EN ISO 105-B2). How it is done:
A sol-gel deposited layer is produced on a glass slide under the same conditions as example 1 above, with a starting 5 mg/ml solution of pyrene-1-carboxylic.
This sample is used as filter affixed to a colored textile.
A glass slide not treated with this deposited layer is also affixed to another sample of the same colored textile for the purposes of reference sample.
The two samples are exposed to an accelerated aging test in a Suntest CPS chamber from Atlas. The aging conditions are as follows and in accordance with the standard NF EN ISO 105-B2: irradiance at 550 W/m^2, xenon arc lamp equipped with a “sheet glass” filter which cuts off the UV radiation below 310 nm, exposure time 72 h.

Data set [5] can be described thus: comparative accelerated aging test of pyrene derivatives in silica sol-gel layer. As to conditions: 0.5 mg/ml, 620 W/m^2, 24 h, black body 55° C, versus pyrenesulfonic, pyreneboronic, pyreneacetic. How it is done: A silica sol-gel solution as defined in example 1 is prepared.
At the same time, four aqueous solutions respectively comprising pyrenecarboxylic, pyrenesulfonic, pyreneboronic and pyreneacetic, at 0.5 mg/ml, with one molar equivalent of sodium hydroxide, are prepared.
A volume of each aqueous solution thus obtained is mixed with an equivalent volume of the sol-gel solution: each mixture obtained is subsequently deposited by “knife coating” on a microscope slide transparent to UV-A radiation.
After drying in ambient air, these slides are subjected to an accelerated aging test in a Suntest CPS chamber from Atlas.
The aging conditions are as follows: irradiance at 620 W/m^2, xenon arc lamp equipped with a “sheet glass” filter which cuts off the UV radiation below 310 nm, exposure time 24 h. The temperature for regulating the black body is 55° C.
FIG. 3 reports the absorption spectra of the different pyrene derivatives described above as a function of time.

On to `c1cc2ccc3cccc4ccc(c1)c2c34` [pyrene], for which the “UV/vis transmission properties of the coating before/after exposure” value in data set [1] is recorded as “very significantly degraded”.
`O=C(O)c1ccc2ccc3cccc4ccc1c2c34` [pyrene-1-carboxylic, pyrene-1-carboxylic acid]: the “UV/visible transmission properties of the coating before/after exposure” value in data set [2] is given as “retained”. Besides, in data set [3], the “stability toward solar irradiation / radiation” value was “equivalent to that of substituted benzotriazoles”. Also, the “color change of the sol-gel deposited layer after exposure” value in data set [4] (5 mg/ml solution, xenon arc 550 W/m^2, 72 h) is “has not changed in color”. The “degradation grade on the scale of the blues of the protected colored textile” value in data set [4] (scale of 8 levels, 1 most degraded, 8 least degraded, 550 W/m^2, 72 h, untreated reference grade 1) is 4-5. Further, in data set [5], the “stability over time of absorption peak under UV” value is on record as “best stability over time”.
